Experimental data from ChEMBL document CHEMBL4673280, “Discovery and SAR studies of 2-alkyl-3-phenyl-2,4,5,6,7,8-hexahydropyrazolo[3,4-d]azepines as 5-HT inhibitors leading to the identification of a clinical candidate” (Bioorg Med Chem Lett, 2021).

Experiments:
[1] = biological target: T1, Adrenergic receptor alpha-1 (Rattus norvegicus, UniProt P15823+P23944+P43140); assay: Displacement of […] from alpha1 adrenergic receptor in rat cortex membrane incubated for 60 mins by competitive radioligand binding assay; assay type: cell membranes
T1 sequence (P15823 whole entry): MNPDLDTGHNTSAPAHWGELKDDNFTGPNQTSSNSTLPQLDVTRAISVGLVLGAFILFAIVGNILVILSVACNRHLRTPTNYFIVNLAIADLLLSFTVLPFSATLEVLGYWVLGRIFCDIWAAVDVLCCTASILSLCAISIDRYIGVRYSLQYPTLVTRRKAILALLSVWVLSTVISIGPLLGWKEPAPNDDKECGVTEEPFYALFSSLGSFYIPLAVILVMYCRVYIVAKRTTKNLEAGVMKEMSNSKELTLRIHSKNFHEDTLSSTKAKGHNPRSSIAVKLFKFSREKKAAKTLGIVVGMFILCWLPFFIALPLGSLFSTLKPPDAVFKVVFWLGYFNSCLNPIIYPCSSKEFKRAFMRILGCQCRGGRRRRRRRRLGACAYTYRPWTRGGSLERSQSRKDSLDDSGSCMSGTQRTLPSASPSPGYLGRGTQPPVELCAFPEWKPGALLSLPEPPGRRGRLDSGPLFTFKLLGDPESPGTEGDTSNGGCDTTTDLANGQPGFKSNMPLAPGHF
T1 sequence (P23944 whole entry): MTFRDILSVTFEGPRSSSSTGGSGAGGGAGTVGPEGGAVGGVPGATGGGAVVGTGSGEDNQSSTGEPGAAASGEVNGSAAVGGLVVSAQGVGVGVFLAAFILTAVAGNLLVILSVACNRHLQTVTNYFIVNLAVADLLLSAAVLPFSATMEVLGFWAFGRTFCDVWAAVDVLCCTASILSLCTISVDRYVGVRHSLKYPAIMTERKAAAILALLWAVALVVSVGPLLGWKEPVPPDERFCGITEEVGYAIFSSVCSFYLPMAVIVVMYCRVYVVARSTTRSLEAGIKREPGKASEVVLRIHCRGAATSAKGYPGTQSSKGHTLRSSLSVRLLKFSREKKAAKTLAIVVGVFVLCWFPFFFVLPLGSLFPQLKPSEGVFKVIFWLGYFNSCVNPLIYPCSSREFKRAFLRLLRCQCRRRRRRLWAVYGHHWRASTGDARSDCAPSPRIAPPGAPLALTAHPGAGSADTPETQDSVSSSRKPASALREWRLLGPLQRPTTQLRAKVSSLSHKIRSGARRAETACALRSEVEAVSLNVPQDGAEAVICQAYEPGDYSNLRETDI
T1 sequence (P43140 whole entry): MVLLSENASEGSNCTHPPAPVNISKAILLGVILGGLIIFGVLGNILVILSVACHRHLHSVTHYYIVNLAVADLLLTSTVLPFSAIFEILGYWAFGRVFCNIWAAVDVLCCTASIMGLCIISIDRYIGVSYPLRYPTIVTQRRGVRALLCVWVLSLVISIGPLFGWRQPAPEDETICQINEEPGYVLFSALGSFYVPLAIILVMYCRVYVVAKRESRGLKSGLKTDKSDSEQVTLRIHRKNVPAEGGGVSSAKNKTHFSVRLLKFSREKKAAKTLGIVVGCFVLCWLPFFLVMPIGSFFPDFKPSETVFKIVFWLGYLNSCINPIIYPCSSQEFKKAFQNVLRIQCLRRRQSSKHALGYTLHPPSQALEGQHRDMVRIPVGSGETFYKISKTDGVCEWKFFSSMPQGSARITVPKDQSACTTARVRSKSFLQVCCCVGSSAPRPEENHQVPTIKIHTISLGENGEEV

[2] = biological target: 5-hydroxytryptamine receptor 2B (Homo sapiens, UniProt P41595); assay: Displacement of [3H]-ketanserin from human 5-HT2B receptor by competitive radioligand binding assay
[3] = biological target: 5-hydroxytryptamine receptor 2A (Homo sapiens, UniProt P28223); assay: Displacement of [3H]-ketanserin from human 5-HT2A receptor by competitive radioligand binding assay
[4] = biological target: 5-hydroxytryptamine receptor 7 (Rattus norvegicus, UniProt P32305); assay: Displacement of [3H]-CT from rat 5-HT7 receptor expressed in HEK293 cells by competitive radioligand binding assay; assay type: cell-based
[5] = biological target: T2, 5-hydroxytryptamine receptor 2C (Homo sapiens, UniProt P28335); assay: Displacement of [3H]-ketanserin from human 5-HT2C receptor by competitive radioligand binding assay
T2 sequence (P28335 whole entry): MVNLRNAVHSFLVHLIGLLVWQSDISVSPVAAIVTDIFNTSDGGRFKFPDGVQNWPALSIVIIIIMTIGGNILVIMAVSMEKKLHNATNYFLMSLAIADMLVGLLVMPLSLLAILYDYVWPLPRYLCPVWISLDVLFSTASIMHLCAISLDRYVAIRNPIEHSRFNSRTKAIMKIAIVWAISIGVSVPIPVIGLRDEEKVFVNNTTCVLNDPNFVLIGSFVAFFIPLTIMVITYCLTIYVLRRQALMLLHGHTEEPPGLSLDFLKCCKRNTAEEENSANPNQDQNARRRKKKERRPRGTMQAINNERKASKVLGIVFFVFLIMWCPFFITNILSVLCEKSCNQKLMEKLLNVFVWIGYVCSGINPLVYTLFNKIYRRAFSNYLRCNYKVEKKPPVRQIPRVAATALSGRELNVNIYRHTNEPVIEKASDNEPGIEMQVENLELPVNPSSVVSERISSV

Chain of 5-hydroxytryptamine receptor 2A (P28223 whole entry): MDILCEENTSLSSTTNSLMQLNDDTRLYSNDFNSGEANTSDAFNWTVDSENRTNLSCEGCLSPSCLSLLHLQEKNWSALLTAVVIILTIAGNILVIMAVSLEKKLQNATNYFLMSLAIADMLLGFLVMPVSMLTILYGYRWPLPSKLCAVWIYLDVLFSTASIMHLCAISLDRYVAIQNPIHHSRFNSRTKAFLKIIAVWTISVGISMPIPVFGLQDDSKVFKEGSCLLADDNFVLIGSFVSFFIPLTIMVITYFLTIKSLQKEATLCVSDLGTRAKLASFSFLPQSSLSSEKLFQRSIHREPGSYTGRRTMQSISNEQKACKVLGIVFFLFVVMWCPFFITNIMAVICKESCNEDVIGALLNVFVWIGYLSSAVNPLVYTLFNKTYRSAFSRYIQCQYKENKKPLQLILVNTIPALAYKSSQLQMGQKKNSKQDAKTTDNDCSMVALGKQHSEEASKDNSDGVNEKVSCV
Chain of 5-hydroxytryptamine receptor 7 (P32305 whole entry): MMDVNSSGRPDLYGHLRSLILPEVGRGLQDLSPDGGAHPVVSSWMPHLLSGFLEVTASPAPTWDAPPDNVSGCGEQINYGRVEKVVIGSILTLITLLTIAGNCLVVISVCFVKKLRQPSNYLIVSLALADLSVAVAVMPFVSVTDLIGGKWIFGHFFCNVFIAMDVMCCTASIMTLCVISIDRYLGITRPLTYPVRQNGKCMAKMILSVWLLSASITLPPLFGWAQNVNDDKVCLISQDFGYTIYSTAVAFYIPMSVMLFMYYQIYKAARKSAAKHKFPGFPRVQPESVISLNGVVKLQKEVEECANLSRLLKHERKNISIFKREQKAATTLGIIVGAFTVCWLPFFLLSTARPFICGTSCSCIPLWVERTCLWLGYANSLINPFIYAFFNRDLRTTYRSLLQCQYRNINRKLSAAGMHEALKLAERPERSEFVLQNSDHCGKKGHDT
Chain of 5-hydroxytryptamine receptor 2B (P41595 whole entry): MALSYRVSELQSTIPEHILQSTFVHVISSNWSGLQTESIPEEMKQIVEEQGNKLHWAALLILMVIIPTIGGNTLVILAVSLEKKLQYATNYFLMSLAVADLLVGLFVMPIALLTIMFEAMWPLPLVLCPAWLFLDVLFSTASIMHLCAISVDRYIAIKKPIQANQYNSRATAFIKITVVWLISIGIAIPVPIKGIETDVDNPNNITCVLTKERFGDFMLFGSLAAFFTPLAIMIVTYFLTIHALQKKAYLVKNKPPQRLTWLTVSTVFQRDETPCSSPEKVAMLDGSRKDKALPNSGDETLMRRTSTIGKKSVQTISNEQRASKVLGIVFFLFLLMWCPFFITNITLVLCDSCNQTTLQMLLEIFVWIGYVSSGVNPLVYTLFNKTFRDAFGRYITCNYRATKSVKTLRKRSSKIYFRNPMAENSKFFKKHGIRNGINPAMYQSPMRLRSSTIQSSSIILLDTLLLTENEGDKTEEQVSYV

Compound | Ki [1] [nM] | Ki [2] [nM] | Ki [3] [nM] | Ki [4] [nM] | Ki [5] [nM]
CC(C)n1nc2c(c1-c1ccc(C(F)(F)F)cc1)CCNCC2 | 130 | 5 | 2 | 15 | 
COc1ccc(-c2c3c(nn2C(C)C)CCNCC3)cc1 |  | 1 | 3 | 18 | 
CC(C)n1nc2c(c1-c1ccccc1)CCNCC2 | 530 | 19 | 24 | 28 | 130
